Experimental data as given in PubChem BioAssay (NCI).
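GI50 is the concentration that inhibits growth by half. At the TGI there is no net growth.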

Tests used:
Test in all cases: DTP human tumour cell line panel, 384-well format; in the data active = GI50 below about 0.43 µM; inactive = the rest
SK-MEL-5 melanoma = test system: SK-MEL-5 melanoma
HS 578T breast = test system: HS 578T breast
SNB-19 CNS = test system: SNB-19 CNS
SK-MEL-28 melanoma = test system: SK-MEL-28 melanoma
MDA-MB-468 breast = test system: MDA-MB-468 breast
HOP-62 NSCLC = test system: HOP-62 NSCLC
MDA-MB-435 melanoma = test system: MDA-MB-435 melanoma
OVCAR-3 ovarian = test system: OVCAR-3 ovarian
OVCAR-4 ovarian = test system: OVCAR-4 ovarian
NCI/ADR-RES ovarian = test system: NCI/ADR-RES ovarian
HL-60(TB) leukemia = test system: HL-60(TB) leukemia
NCI-H23 lung = test system: NCI-H23 lung
CCRF-CEM leukemia = test system: CCRF-CEM leukemia
COLO 205 colon = test system: COLO 205 colon
IGROV1 ovarian = test system: IGROV1 ovarian
NCI-H460 NSCLC = test system: NCI-H460 NSCLC
A549 NSCLC = test system: A549 NSCLC
A498 renal = test system: A498 renal
HCT-15 colon = test system: HCT-15 colon
T-47D breast = test system: T-47D breast
SNB-75 CNS = test system: SNB-75 CNS
RPMI-8226 leukemia = test system: RPMI-8226 leukemia
U251 glioblastoma = test system: U251 glioblastoma
SR leukemia = test system: SR leukemia
BT-549 breast = test system: BT-549 breast
MDA-MB-231 breast = test system: MDA-MB-231 breast
SF-539 CNS = test system: SF-539 CNS
HT29 colon = test system: HT29 colon
SK-MEL-2 melanoma = test system: SK-MEL-2 melanoma
ACHN renal = test system: ACHN renal
TK-10 renal = test system: TK-10 renal
MCF7 breast = test system: MCF7 breast
DU-145 prostate = test system: DU-145 prostate
SF-268 CNS = test system: SF-268 CNS
SK-OV-3 ovarian = test system: SK-OV-3 ovarian
PC-3 prostate = test system: PC-3 prostate
OVCAR-8 ovarian = test system: OVCAR-8 ovarian
NCI-H522 lung = test system: NCI-H522 lung
HOP-92 NSCLC = test system: HOP-92 NSCLC
SW-620 colon = test system: SW-620 colon
RXF 393 renal = test system: RXF 393 renal
SF-295 CNS = test system: SF-295 CNS
OVCAR-5 ovarian = test system: OVCAR-5 ovarian
UACC-257 melanoma = test system: UACC-257 melanoma
SN12C renal = test system: SN12C renal
HCC-2998 colon = test system: HCC-2998 colon
MALME-3M melanoma = test system: MALME-3M melanoma
MOLT-4 leukemia = test system: MOLT-4 leukemia
CAKI-1 renal = test system: CAKI-1 renal
786-0 renal = test system: 786-0 renal
UACC-62 melanoma = test system: UACC-62 melanoma
EKVX NSCLC = test system: EKVX NSCLC
NCI-H322M lung = test system: NCI-H322M lung
NCI-H226 lung = test system: NCI-H226 lung
KM12 colon = test system: KM12 colon
M14 melanoma = test system: M14 melanoma

CN1CCc2cc3c(cc2C1O)OCO3 (configuration not stated)
inactive: GI50 (SK-MEL-5 melanoma) > 100 µM | GI50 (HS 578T breast) > 100 µM | GI50 (SNB-19 CNS) > 100 µM | GI50 (SK-MEL-28 melanoma) > 100 µM | GI50 (MDA-MB-468 breast) > 100 µM | GI50 (HOP-62 NSCLC) > 100 µM | GI50 (MDA-MB-435 melanoma) > 100 µM | GI50 (OVCAR-3 ovarian) > 100 µM | GI50 (OVCAR-4 ovarian) > 100 µM | GI50 (NCI/ADR-RES ovarian) > 100 µM | GI50 (HL-60(TB) leukemia) > 100 µM | GI50 (NCI-H23 lung) > 100 µM | GI50 (CCRF-CEM leukemia) > 100 µM | GI50 (COLO 205 colon) > 100 µM | GI50 (IGROV1 ovarian) > 100 µM | GI50 (NCI-H460 NSCLC) > 100 µM | GI50 (A549 NSCLC) > 100 µM | GI50 (A498 renal) > 100 µM | GI50 (HCT-15 colon) > 100 µM | GI50 (T-47D breast) > 100 µM | GI50 (SNB-75 CNS) > 100 µM | GI50 (RPMI-8226 leukemia) > 100 µM | GI50 (U251 glioblastoma) > 100 µM | GI50 (SR leukemia) > 100 µM | GI50 (BT-549 breast) > 100 µM | GI50 (MDA-MB-231 breast) > 100 µM | GI50 (SF-539 CNS) > 100 µM | GI50 (HT29 colon) > 100 µM | GI50 (SK-MEL-2 melanoma) > 100 µM | GI50 (ACHN renal) > 100 µM | GI50 (TK-10 renal) > 100 µM | GI50 (MCF7 breast) > 100 µM | GI50 (DU-145 prostate) > 100 µM | GI50 (SF-268 CNS) > 100 µM | GI50 (SK-OV-3 ovarian) > 100 µM | GI50 (PC-3 prostate) > 100 µM | GI50 (OVCAR-8 ovarian) > 100 µM | GI50 (NCI-H522 lung) > 100 µM | GI50 (HOP-92 NSCLC) > 100 µM | GI50 (SW-620 colon) > 100 µM | GI50 (RXF 393 renal) > 100 µM | GI50 (SF-295 CNS) > 100 µM | GI50 (OVCAR-5 ovarian) > 100 µM | GI50 (UACC-257 melanoma) > 100 µM | GI50 (SN12C renal) > 100 µM | GI50 (HCC-2998 colon) > 100 µM | GI50 (MALME-3M melanoma) > 100 µM | GI50 (MOLT-4 leukemia) > 100 µM | GI50 (CAKI-1 renal) > 100 µM | GI50 (786-0 renal) > 100 µM | GI50 (UACC-62 melanoma) > 100 µM | GI50 (EKVX NSCLC) > 100 µM | GI50 (NCI-H322M lung) > 100 µM | GI50 (NCI-H226 lung) > 100 µM | GI50 (KM12 colon) > 100 µM | GI50 (M14 melanoma) > 100 µM
> 100 µM: TGI (SK-MEL-5 melanoma) | TGI (HS 578T breast) | TGI (SNB-19 CNS) | TGI (SK-MEL-28 melanoma) | TGI (MDA-MB-468 breast) | TGI (HOP-62 NSCLC) | TGI (MDA-MB-435 melanoma) | TGI (OVCAR-3 ovarian) | TGI (OVCAR-4 ovarian) | TGI (NCI/ADR-RES ovarian) | TGI (HL-60(TB) leukemia) | TGI (NCI-H23 lung) | TGI (CCRF-CEM leukemia) | TGI (COLO 205 colon) | TGI (IGROV1 ovarian) | TGI (NCI-H460 NSCLC) | TGI (A549 NSCLC) | TGI (A498 renal) | TGI (HCT-15 colon) | TGI (T-47D breast) | TGI (SNB-75 CNS) | TGI (RPMI-8226 leukemia) | TGI (U251 glioblastoma) | TGI (SR leukemia) | TGI (BT-549 breast) | TGI (MDA-MB-231 breast) | TGI (SF-539 CNS) | TGI (HT29 colon) | TGI (SK-MEL-2 melanoma) | TGI (ACHN renal) | TGI (TK-10 renal) | TGI (MCF7 breast) | TGI (DU-145 prostate) | TGI (SF-268 CNS) | TGI (SK-OV-3 ovarian) | TGI (PC-3 prostate) | TGI (OVCAR-8 ovarian) | TGI (NCI-H522 lung) | TGI (HOP-92 NSCLC) | TGI (SW-620 colon) | TGI (RXF 393 renal) | TGI (SF-295 CNS) | TGI (OVCAR-5 ovarian) | TGI (UACC-257 melanoma) | TGI (SN12C renal) | TGI (HCC-2998 colon) | TGI (MALME-3M melanoma) | TGI (MOLT-4 leukemia) | TGI (CAKI-1 renal) | TGI (786-0 renal) | TGI (UACC-62 melanoma) | TGI (EKVX NSCLC) | TGI (NCI-H322M lung) | TGI (NCI-H226 lung) | TGI (KM12 colon) | TGI (M14 melanoma)
